Assays:
Test in all cases: radiometric filter-binding kinase assay, Kinase HotSpot
Details in all cases: compound 0.5 µM; ATP 10 µM
[1] = target: SRPK1 (human) (UniProt Q96SB4)
[2] = target: PAK2 (human) (UniProt Q13177)
[3] = target: KDR (human) (UniProt P35968)
[4] = target: TXK (human) (UniProt P42681)
[5] = target: GSK3A (human) (UniProt P49840)
[6] = target: TYK2 JH1 catalytic (human) (UniProt P29597)
[7] = target: EPHB2 (human) (UniProt P29323)
[8] = target: TEK (human) (UniProt Q02763)
[9] = target: AKT1 (human) (UniProt P31749)
Sequence of AKT1 (human) (P31749 whole entry, looked up): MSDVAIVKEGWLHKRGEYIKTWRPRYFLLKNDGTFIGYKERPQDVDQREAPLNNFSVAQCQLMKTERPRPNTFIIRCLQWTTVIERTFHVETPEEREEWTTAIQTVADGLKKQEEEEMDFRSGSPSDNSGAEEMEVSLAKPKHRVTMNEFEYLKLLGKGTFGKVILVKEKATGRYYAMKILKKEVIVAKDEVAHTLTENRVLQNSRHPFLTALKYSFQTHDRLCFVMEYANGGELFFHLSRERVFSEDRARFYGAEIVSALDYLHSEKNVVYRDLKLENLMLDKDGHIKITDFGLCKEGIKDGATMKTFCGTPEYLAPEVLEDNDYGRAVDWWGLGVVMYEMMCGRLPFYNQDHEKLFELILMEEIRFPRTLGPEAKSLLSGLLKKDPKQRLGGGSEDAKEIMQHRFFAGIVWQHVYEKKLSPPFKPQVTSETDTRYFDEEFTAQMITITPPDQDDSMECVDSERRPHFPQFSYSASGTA

[10] = target: FGFR3 (human) (UniProt P22607)
[11] = target: GRK5 (human) (UniProt P34947)
[12] = target: ALK (human) (UniProt Q9UM73)
[13] = target: DSTYK (human) (UniProt Q6XUX3)
[14] = target: NEK4 (human) (UniProt P51957)
[15] = target: PBK (human) (UniProt Q96KB5)
Sequence of PBK (human) (Q96KB5 whole entry, looked up): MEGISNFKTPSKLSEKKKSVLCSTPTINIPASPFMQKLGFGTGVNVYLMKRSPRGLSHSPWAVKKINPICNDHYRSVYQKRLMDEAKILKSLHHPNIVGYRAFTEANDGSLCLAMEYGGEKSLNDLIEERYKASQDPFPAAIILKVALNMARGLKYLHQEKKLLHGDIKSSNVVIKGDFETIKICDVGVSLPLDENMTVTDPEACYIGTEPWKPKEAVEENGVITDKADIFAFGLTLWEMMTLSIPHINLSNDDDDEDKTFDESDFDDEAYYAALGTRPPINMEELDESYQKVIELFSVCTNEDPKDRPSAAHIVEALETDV

[16] = target: PRKG2 (human) (UniProt Q13237)
[17] = target: PRKCI (human) (UniProt P41743)
[18] = target: IRAK4 (human) (UniProt Q9NWZ3)
[19] = target: RPS6KB2 (human) (UniProt Q9UBS0)
[20] = target: NEK11 (human) (UniProt Q8NG66)
[21] = target: MAPK11 (human) (UniProt Q15759)
[22] = target: NEK9 (human) (UniProt Q8TD19)
[23] = target: DYRK1B (human) (UniProt Q9Y463)
[24] = target: SLK (human) (UniProt Q9H2G2)
[25] = target: EPHA8 (human) (UniProt P29322)
[26] = target: FGFR2 (human) (UniProt P21802)
[27] = target: CDK6 CCND3 (human) (UniProt P30281+Q00534)
[28] = target: CDK1 CCNB1 (human) (UniProt P06493+P14635)
[29] = target: CAMK2A (human) (UniProt Q9UQM7)
[30] = target: CDC42BPB (human) (UniProt Q9Y5S2)
Sequence of CDC42BPB (human) (Q9Y5S2 whole entry, looked up): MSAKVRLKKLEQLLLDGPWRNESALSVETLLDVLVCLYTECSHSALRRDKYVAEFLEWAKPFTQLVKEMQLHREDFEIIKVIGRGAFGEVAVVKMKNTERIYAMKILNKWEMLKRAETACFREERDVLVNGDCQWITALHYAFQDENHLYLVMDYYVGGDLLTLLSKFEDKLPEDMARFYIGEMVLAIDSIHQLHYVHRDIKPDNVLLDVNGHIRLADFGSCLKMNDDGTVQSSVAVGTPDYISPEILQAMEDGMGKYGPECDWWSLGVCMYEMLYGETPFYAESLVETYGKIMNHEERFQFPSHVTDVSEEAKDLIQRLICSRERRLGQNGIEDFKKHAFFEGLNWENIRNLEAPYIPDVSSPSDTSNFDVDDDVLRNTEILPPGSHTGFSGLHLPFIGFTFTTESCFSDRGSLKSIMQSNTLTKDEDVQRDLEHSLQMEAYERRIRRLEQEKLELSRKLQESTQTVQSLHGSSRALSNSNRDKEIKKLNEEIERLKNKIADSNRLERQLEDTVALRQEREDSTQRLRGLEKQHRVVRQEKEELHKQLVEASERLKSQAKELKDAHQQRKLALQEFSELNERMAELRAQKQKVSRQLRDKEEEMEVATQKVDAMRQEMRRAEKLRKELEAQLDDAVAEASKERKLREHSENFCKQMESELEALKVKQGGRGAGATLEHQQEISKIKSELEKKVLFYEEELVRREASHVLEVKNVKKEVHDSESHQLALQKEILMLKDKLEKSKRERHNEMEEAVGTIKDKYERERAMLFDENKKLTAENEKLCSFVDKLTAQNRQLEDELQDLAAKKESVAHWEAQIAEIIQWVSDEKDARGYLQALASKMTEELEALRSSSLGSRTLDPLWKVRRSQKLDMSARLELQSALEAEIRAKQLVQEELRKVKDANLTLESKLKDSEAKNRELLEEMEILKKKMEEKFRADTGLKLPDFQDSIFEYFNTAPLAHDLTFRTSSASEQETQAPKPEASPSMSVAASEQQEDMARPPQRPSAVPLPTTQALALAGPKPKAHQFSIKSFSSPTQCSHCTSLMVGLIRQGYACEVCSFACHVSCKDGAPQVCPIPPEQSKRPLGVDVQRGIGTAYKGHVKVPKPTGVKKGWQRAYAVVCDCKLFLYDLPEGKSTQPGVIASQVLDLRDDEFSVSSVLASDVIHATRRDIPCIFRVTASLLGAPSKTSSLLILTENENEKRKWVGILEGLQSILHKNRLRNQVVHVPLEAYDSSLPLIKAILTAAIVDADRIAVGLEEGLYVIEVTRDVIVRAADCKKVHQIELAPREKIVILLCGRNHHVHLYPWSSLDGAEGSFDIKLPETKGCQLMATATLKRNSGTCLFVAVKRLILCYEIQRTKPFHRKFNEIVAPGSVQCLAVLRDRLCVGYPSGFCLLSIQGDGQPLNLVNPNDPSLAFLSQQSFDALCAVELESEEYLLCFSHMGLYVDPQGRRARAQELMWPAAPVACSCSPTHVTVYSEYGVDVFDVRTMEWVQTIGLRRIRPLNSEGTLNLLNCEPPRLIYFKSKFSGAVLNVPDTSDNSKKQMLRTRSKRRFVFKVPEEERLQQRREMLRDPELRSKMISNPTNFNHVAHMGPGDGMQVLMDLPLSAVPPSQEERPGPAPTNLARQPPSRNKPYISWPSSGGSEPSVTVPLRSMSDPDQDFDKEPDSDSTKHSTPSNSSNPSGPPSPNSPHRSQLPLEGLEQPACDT

[31] = target: AURKA (human) (UniProt O14965)
[32] = target: JAK2 JH1 JH2 (human) (UniProt O60674)
[33] = target: PNCK (human) (UniProt Q6P2M8)
[34] = target: NTRK3 (human) (UniProt Q16288)
Sequence of NTRK3 (human) (Q16288 whole entry, looked up): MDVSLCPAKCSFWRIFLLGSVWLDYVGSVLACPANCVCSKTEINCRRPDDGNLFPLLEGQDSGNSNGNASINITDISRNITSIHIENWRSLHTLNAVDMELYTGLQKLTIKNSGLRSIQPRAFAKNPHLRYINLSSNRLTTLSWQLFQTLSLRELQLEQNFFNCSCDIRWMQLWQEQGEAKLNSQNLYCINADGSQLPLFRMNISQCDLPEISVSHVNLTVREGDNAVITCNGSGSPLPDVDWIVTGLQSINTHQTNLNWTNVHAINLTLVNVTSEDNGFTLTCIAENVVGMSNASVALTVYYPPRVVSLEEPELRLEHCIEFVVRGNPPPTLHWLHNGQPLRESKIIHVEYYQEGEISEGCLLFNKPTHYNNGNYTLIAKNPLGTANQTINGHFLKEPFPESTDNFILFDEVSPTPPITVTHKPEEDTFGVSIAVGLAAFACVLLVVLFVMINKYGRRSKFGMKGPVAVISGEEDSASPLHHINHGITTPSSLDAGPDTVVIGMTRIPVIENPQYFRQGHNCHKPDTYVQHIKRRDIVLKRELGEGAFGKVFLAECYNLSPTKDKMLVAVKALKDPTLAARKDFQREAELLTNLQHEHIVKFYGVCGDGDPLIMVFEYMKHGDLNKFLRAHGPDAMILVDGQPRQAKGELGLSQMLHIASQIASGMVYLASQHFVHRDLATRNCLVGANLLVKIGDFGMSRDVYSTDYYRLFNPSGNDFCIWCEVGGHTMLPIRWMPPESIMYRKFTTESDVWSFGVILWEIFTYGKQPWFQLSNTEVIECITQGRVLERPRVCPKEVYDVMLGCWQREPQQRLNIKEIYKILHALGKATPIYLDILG

[35] = target: MAP2K2 (human) (UniProt P36507)
[36] = target: STK17A (human) (UniProt Q9UEE5)
[37] = target: RPS6KA5 KD2 (human) (UniProt O75582)
[38] = target: BTK (human) (UniProt Q06187)
[39] = target: FLT1 (human) (UniProt P17948)
[40] = target: CDK5 CDK5R1 p25 (human) (UniProt Q00535+Q15078)
[41] = target: ABL2 (human) (UniProt P42684)
[42] = target: MAPKAPK2 (human) (UniProt P49137)

Sequence of PAK2 (human) (Q13177 whole entry, looked up): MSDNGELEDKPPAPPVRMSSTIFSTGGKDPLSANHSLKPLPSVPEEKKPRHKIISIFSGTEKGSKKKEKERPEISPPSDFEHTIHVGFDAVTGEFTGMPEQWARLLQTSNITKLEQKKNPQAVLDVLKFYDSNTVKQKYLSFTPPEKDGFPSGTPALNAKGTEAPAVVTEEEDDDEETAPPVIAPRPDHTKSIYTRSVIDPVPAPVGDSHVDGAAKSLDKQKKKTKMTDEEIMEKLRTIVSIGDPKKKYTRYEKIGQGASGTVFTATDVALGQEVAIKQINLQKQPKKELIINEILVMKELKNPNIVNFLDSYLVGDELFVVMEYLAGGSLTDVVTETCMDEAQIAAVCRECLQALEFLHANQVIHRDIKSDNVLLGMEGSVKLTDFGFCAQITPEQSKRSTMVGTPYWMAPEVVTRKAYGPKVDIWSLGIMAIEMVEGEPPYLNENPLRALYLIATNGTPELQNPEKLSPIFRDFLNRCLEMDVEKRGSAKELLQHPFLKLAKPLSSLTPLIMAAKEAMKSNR
Sequence of TEK (human) (Q02763 whole entry, looked up): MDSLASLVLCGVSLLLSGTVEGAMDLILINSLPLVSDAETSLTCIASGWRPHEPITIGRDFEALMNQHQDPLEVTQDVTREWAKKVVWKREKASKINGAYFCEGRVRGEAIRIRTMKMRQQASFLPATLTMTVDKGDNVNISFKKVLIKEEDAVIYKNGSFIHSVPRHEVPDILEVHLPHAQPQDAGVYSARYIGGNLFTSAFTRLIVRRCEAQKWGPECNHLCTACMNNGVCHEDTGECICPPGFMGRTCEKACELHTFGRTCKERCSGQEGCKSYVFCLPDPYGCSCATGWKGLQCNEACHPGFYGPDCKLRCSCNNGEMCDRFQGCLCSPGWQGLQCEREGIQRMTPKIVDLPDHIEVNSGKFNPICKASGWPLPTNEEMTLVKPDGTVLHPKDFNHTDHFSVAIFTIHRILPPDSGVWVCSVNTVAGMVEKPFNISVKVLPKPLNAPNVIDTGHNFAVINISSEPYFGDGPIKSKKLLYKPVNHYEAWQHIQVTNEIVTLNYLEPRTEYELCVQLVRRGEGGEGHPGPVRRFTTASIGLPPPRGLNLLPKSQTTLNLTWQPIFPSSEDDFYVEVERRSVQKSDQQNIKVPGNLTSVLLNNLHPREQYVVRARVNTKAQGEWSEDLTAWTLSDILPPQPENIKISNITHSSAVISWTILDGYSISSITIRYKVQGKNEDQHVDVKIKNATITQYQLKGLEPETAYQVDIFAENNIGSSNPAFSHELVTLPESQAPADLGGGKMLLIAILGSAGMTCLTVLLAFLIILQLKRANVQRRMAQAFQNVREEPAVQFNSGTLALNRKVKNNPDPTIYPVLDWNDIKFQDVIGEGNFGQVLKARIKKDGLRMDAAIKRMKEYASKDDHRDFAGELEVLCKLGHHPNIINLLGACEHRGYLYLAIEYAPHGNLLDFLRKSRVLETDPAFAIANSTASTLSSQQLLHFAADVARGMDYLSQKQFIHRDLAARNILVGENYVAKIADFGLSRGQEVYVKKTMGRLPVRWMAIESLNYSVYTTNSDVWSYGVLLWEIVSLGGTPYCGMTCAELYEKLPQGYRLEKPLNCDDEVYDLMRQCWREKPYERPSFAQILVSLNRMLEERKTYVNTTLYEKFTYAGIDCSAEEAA

O=C(Nc1cccc(Nc2cc(Nc3cccc(C(F)(F)F)c3)ncn2)c1)C1CC1
residual activity [1]: 86.4%
residual activity [2]: 103%
residual activity [3]: 101%
residual activity [4]: 97.1%
residual activity [5]: 101%
residual activity [6]: 102%
residual activity [7]: 88.6%
residual activity [8]: 101%
residual activity [9]: 102%
residual activity [10]: 102%
residual activity [11]: 109%
residual activity [12]: 112%
residual activity [13]: 102%
residual activity [14]: 90.6%
residual activity [15]: 103%
residual activity [16]: 103%
residual activity [17]: 98.1%
residual activity [18]: 104%
residual activity [19]: 103%
residual activity [20]: 94.3%
residual activity [21]: 97.2%
residual activity [22]: 101%
residual activity [23]: 105%
residual activity [24]: 102%
residual activity [25]: 103%
residual activity [26]: 105%
residual activity [27]: 102%
residual activity [28]: 96.4%
residual activity [29]: 104%
residual activity [30]: 97.4%
residual activity [31]: 107%
residual activity [32]: 99.5%
residual activity [33]: 101%
residual activity [34]: 95.1%
residual activity [35]: 101%
residual activity [36]: 99.2%
residual activity [37]: 103%
residual activity [38]: 101%
residual activity [39]: 99.4%
residual activity [40]: 99.5%
residual activity [41]: 100%
residual activity [42]: 104%

COc1ccc(CNC(=O)Nc2ncc([N+](=O)[O-])s2)cc1
residual activity [1]: 92.9%
residual activity [2]: 102%
residual activity [3]: 85.7%
residual activity [4]: 96.9%
residual activity [5]: 13.5%
residual activity [6]: 108%
residual activity [7]: 88.4%
residual activity [8]: 94%
residual activity [9]: 102%
residual activity [10]: 108%
residual activity [11]: 104%
residual activity [12]: 100%
residual activity [13]: 96.2%
residual activity [14]: 91%
residual activity [15]: 110%
residual activity [16]: 100%
residual activity [17]: 94.4%
residual activity [18]: 101%
residual activity [19]: 93.6%
residual activity [20]: 104%
residual activity [21]: 95.4%
residual activity [22]: 89.4%
residual activity [23]: 99.4%
residual activity [24]: 88.9%
residual activity [25]: 109%
residual activity [26]: 97.4%
residual activity [27]: 99.1%
residual activity [28]: 85.1%
residual activity [29]: 98.8%
residual activity [30]: 93.5%
residual activity [31]: 97.4%
residual activity [32]: 104%
residual activity [33]: 99.3%
residual activity [34]: 98.7%
residual activity [35]: 73.5%
residual activity [36]: 91.6%
residual activity [37]: 99.5%
residual activity [38]: 102%
residual activity [39]: 96.8%
residual activity [40]: 97.7%
residual activity [41]: 97.9%
residual activity [42]: 112%

CCN(CC)CCCCN1c2ccccc2Oc2ccc(Cl)cc21
residual activity [1]: 97.2%
residual activity [2]: 98.6%
residual activity [3]: 93.7%
residual activity [4]: 101%
residual activity [5]: 108%
residual activity [6]: 96.7%
residual activity [7]: 107%
residual activity [8]: 103%
residual activity [9]: 112%
residual activity [10]: 91.8%
residual activity [11]: 103%
residual activity [12]: 106%
residual activity [13]: 106%
residual activity [14]: 110%
residual activity [15]: 105%
residual activity [16]: 94.4%
residual activity [17]: 105%
residual activity [18]: 194%
residual activity [19]: 107%
residual activity [20]: 92%
residual activity [21]: 103%
residual activity [22]: 98.8%
residual activity [23]: 101%
residual activity [24]: 105%
residual activity [25]: 102%
residual activity [26]: 95.7%
residual activity [27]: 102%
residual activity [28]: 96.8%
residual activity [29]: 104%
residual activity [30]: 99.7%
residual activity [31]: 93.3%
residual activity [32]: 104%
residual activity [33]: 107%
residual activity [34]: 103%
residual activity [35]: 88.4%
residual activity [36]: 96.1%
residual activity [37]: 107%
residual activity [38]: 99.2%
residual activity [39]: 94.3%
residual activity [40]: 91%
residual activity [41]: 101%
residual activity [42]: 97.2%

From the kinase profiling compilation of Christmann-Franck et al. (2016)
